Source: PubChem BioAssay AID330 (DTP/NCI, 2004)
Inconclusive results and toxic doses are left out. How the source made its calls: active means survival T/C of 150% or more; inactive means T/C below 125% in these data. Square brackets hold non-standard residues; d marks the D form. Peptide text beside a SMILES is read from it. ξ: configuration not given here. ξR = N=C(N)NCCCC(N)C(=O)O

System: P388 leukemia ip, CD2F1 mice, survival T/C
Assay: NCI In Vivo Anticancer Drug Screen. Data for tumor model P388 Leukemia (intraperitoneal) in CD2F1 (CDF1) mice
Settings: endpoint: median survival time, higher = longer survival
Experimental: The antitumor activity of compounds was measured in mice bearing transplantable tumors. Survival or tumor size were measured and the results are expressed as the measurement made in the treated group (T) divided by the measurement made in the vehicle treated control group (C). The tumor model used in this assay is P388 Leukemia (intraperitoneal) in CD2F1 (CDF1) mice

[1] = dose: 50.0 mg/kg/injection, schedule: Q01DX005 (ip), vehicle: Klucel (hydroxypropylcellulose) (HPC)
[2] = dose: 100.0 mg/kg/injection, schedule: Q01DX005 (ip), vehicle: Klucel (hydroxypropylcellulose) (HPC)
[3] = dose: 25.0 mg/kg/injection, schedule: Q01DX009 (ip), vehicle: saline with Tween-80
[4] = dose: 50.0 mg/kg/injection, schedule: Q01DX009 (ip), vehicle: saline with Tween-80
[5] = dose: 100.0 mg/kg/injection, schedule: Q01DX009 (ip), vehicle: saline with Tween-80
[6] = dose: 200.0 mg/kg/injection, schedule: Q01DX009 (ip), vehicle: saline with Tween-80
[7] = dose: 50.0 mg/kg/injection, schedule: Q01DX009 (ip), vehicle: saline

Measured: T/C

CNC(=S)N/N=C/Cn1ccc(=O)[nH]c1=O
inactive: [1] 89 % of control | [2] 90 % of control

COCN1C(=O)CN=C(c2ccccc2)c2cc([N+](=O)[O-])ccc21
inactive: dose: 50.0 mg/kg/injection, schedule: Q01DX009 (ip), vehicle: Klucel (hydroxypropylcellulose) (HPC) 100 % of control | dose: 100.0 mg/kg/injection, schedule: Q01DX009 (ip), vehicle: Klucel (hydroxypropylcellulose) (HPC) 101 % of control | dose: 200.0 mg/kg/injection, schedule: Q01DX009 (ip), vehicle: Klucel (hydroxypropylcellulose) (HPC) 98 % of control

COC(CNC(c1ccccc1)C(O)c1ccccc1)(OC)OC (centres undefined)
inactive: dose: 100.0 mg/kg/injection, schedule: Q01DX001 (ip), vehicle: saline with Tween-80 97 % of control | dose: 200.0 mg/kg/injection, schedule: Q01DX001 (ip), vehicle: saline with Tween-80 97 % of control | dose: 400.0 mg/kg/injection, schedule: Q01DX001 (ip), vehicle: saline with Tween-80 97 % of control

C/C(=N\N=C(N)N)c1cccc(/C(C)=N/N=C(N)N)n1
inactive: dose: 6.25 mg/kg/injection, schedule: Q01DX009 (ip), vehicle: saline with Tween-80 101 % of control | [3] 110 % of control | [4] 90 % of control

COC(=S)NC(=O)c1ccc(Cl)c(Cl)c1
inactive: [3] 108 % of control | [4] 107 % of control | [5] 99 % of control | [6] 110 % of control

COC(=O)C1c2ccc(OC)c(OC)c2C(=O)N2CCc3cc(OC)c(OC)cc3C12 (centres undefined)
inactive: dose: 50.0 mg/kg/injection, schedule: Q04DX003 (ip), vehicle: distilled water + Tween-80 93 % of control | dose: 100.0 mg/kg/injection, schedule: Q04DX003 (ip), vehicle: distilled water + Tween-80 96 % of control | dose: 200.0 mg/kg/injection, schedule: Q04DX003 (ip), vehicle: distilled water + Tween-80 87 % of control | dose: 400.0 mg/kg/injection, schedule: Q04DX003 (ip), vehicle: distilled water + Tween-80 110 % of control

O=[N+]([O-])c1cc(S(=O)(=O)c2ccc(F)c([N+](=O)[O-])c2)ccc1F
inactive: dose: 3.12 mg/kg/injection, schedule: Q01DX009 (ip), vehicle: Klucel (hydroxypropylcellulose) (HPC) 102 % of control | dose: 6.25 mg/kg/injection, schedule: Q01DX009 (ip), vehicle: Klucel (hydroxypropylcellulose) (HPC) 108 % of control | dose: 12.5 mg/kg/injection, schedule: Q01DX009 (ip), vehicle: Klucel (hydroxypropylcellulose) (HPC) 114 % of control | dose: 25.0 mg/kg/injection, schedule: Q01DX009 (ip), vehicle: Klucel (hydroxypropylcellulose) (HPC) 108 % of control

COc1ccc(CSC(=S)Nc2ccc(C)c(Br)c2)cc1
inactive: [7] 100 % of control | dose: 100.0 mg/kg/injection, schedule: Q01DX009 (ip), vehicle: saline 97 % of control | dose: 100.0 mg/kg/injection, schedule: Q01DX009 (ip), vehicle: suspension in saline 91 % of control | dose: 200.0 mg/kg/injection, schedule: Q01DX009 (ip), vehicle: saline 106 % of control | dose: 200.0 mg/kg/injection, schedule: Q01DX009 (ip), vehicle: suspension in saline 104 % of control

O=C1Nc2c(Cl)cc(Cl)cc2/C1=N/N=C/c1ccco1
inactive: dose: 50.0 mg/kg/injection, schedule: Q01DX005 (ip), vehicle: saline with Tween-80 101 % of control | dose: 100.0 mg/kg/injection, schedule: Q01DX005 (ip), vehicle: saline with Tween-80 104 % of control | dose: 200.0 mg/kg/injection, schedule: Q01DX005 (ip), vehicle: saline with Tween-80 104 % of control

FC(F)(F)c1cccc(C2CNCCO2)c1 (centres undefined)
inactive: dose: 12.5 mg/kg/injection, schedule: Q01DX009 (ip), vehicle: saline 100 % of control | dose: 25.0 mg/kg/injection, schedule: Q01DX009 (ip), vehicle: saline 105 % of control | [7] 100 % of control

OCNC(=S)c1c(Cl)cccc1Cl
inactive: [3] 111 % of control | [4] 111 % of control | [5] 109 % of control | [6] 100 % of control

CCCCCCCCCCCCOC(=O)OCCCCCCCCCCCC
inactive: dose: 100.0 mg/kg/injection, schedule: Q04DX003 (ip), vehicle: saline with Tween-80 100 % of control | dose: 200.0 mg/kg/injection, schedule: Q04DX003 (ip), vehicle: saline with Tween-80 100 % of control | dose: 400.0 mg/kg/injection, schedule: Q04DX003 (ip), vehicle: saline with Tween-80 100 % of control

CC(=O)CC(C)(C)C1CCCCC1
inactive: dose: 12.5 mg/kg/injection, schedule: Q01DX009 (ip), vehicle: water 116 % of control | dose: 25.0 mg/kg/injection, schedule: Q01DX009 (ip), vehicle: water 108 % of control | dose: 50.0 mg/kg/injection, schedule: Q01DX009 (ip), vehicle: water 103 % of control | dose: 100.0 mg/kg/injection, schedule: Q01DX009 (ip), vehicle: water 107 % of control | dose: 200.0 mg/kg/injection, schedule: Q01DX009 (ip), vehicle: water 104 % of control

O=CNc1ccc2c3c(cccc13)-c1ccccc1-2
inactive: [1] 89 % of control | [2] 97 % of control | dose: 200.0 mg/kg/injection, schedule: Q01DX005 (ip), vehicle: Klucel (hydroxypropylcellulose) (HPC) 100 % of control

COc1cc2c3c(c1)/C(=N\Nc1ccccc1)CCN3CCC2
inactive: dose: 3.12 mg/kg/injection, schedule: Q01DX009 (ip), vehicle: DMSO 99 % of control

NC(N)=NCCCC(N)C(=O)NCC(=O)NCC(=O)O (stereo not drawn) (H-[ξR]-Gly-Gly-OH)
inactive: dose: 50.0 mg/kg/injection, schedule: Q01DX005 (ip), vehicle: saline 98 % of control | dose: 100.0 mg/kg/injection, schedule: Q01DX005 (ip), vehicle: saline 96 % of control | dose: 200.0 mg/kg/injection, schedule: Q01DX005 (ip), vehicle: saline 98 % of control

N#C/C(=C/c1ccc(Cl)cc1)C(=O)NC(N)=O
inactive: dose: 100.0 mg/kg/injection, schedule: Q04DX002 (ip), vehicle: saline 100 % of control | dose: 200.0 mg/kg/injection, schedule: Q04DX002 (ip), vehicle: saline 105 % of control | dose: 400.0 mg/kg/injection, schedule: Q04DX002 (ip), vehicle: saline 107 % of control

S=c1o[nH]c(-c2ccccc2)c1C=Nc1ccccc1
inactive: dose: 60.0 mg/kg/injection, schedule: Q01DX005 (ip), vehicle: saline with Tween-80 102 % of control | dose: 120.0 mg/kg/injection, schedule: Q01DX005 (ip), vehicle: saline with Tween-80 93 % of control | dose: 240.0 mg/kg/injection, schedule: Q01DX005 (ip), vehicle: saline with Tween-80 94 % of control

ClC(Cl)(Cl)CN1CCCCC1Cc1ccccc1 (centres undefined)
inactive: dose: 30.0 mg/kg/injection, schedule: Q01DX005 (ip), vehicle: Klucel (hydroxypropylcellulose) (HPC) 101 % of control | dose: 60.0 mg/kg/injection, schedule: Q01DX005 (ip), vehicle: Klucel (hydroxypropylcellulose) (HPC) 100 % of control

Cc1ccc(S(=O)(=O)N2CCC(O)(c3ccccc3)CC2)cc1
inactive: dose: 100.0 mg/kg/injection, schedule: Q01DX001 (ip), vehicle: Klucel (hydroxypropylcellulose) (HPC) 94 % of control | dose: 200.0 mg/kg/injection, schedule: Q01DX001 (ip), vehicle: Klucel (hydroxypropylcellulose) (HPC) 94 % of control | dose: 400.0 mg/kg/injection, schedule: Q01DX001 (ip), vehicle: Klucel (hydroxypropylcellulose) (HPC) 93 % of control

CSCCC(NC(=O)C(Cc1ccccc1)NC(=O)CNC(=O)C(C)NC(=O)C(N)Cc1ccc(O)cc1)C(N)=O (centres undefined)
inactive: dose: 8.75 mg/kg/injection, schedule: Q01DX005 (ip), vehicle: saline 103 % of control | dose: 17.5 mg/kg/injection, schedule: Q01DX005 (ip), vehicle: saline 107 % of control | dose: 35.0 mg/kg/injection, schedule: Q01DX005 (ip), vehicle: saline 100 % of control | dose: 70.0 mg/kg/injection, schedule: Q01DX005 (ip), vehicle: saline 100 % of control | dose: 140.0 mg/kg/injection, schedule: Q01DX005 (ip), vehicle: saline 104 % of control
